Experiment: Stability test: storage in stoppered vessels at 60° C. under a nitrogen atmosphere, content by HPLC
Type: physicochemical
Conditions: for Stability (Residual rate): based on initial content (100%)
Protocol: In the stability test, crystals B, C and D of the present invention prepared in Examples 1, 2 and 4, respectively and the amorphous powder (Amorphous A) of compound of general formula (I) described in Example 1 (1d) of the Japanese Patent No. 2569251 were used as reference. These compounds were placed in stoppered vessels separately and stored at 60° C. under a nitrogen atmosphere for 17 days, and the content of these compounds was measured on 5, 10 and 17 days after the initiation of the storage.
The content of these compounds was determined quantitatively with high performance liquid chromatography (HPLC), and the rate of the remaining compounds (%) was calculated by the content of Compound (I) determined at each sampling point based on the initial content (100%) determined immediately before the storage.

[1] = 5 days after the initiation of storage
[2] = 10 days after the initiation of storage
[3] = 17 days after the initiation of storage

| stability (in words) | Stability (Residual rate) [1] [%] | Stability (Residual rate) [2] [%] | Stability (Residual rate) [3] [%] | Stability (Residual rate) (17 days after the initiation of storage, listed as amorphous A) [%] | Stability (Residual rate) (17 days after the initiation of storage, listed as crystal B) [%] | Stability (Residual rate) (17 days after the initiation of storage, listed as crystal C) [%] | Stability (Residual rate) (17 days after the initiation of storage, listed as crystal D) [%] | Structure (SMILES) |
| --- | --- | --- | --- | --- | --- | --- | --- | --- |
| extremely low | 92.7 | 78.6 | 62.5 | 62.5 | – | – | – | CCCCCCCCCCCCCCCC(=O)Nc1ccn([C@@H]2O[C@H](CO)[C@@H](O)[C@@H]2C#N)c(=O)n1 [Amorphous A, 2′-cyano-2′-deoxy-N^4-palmitoyl-1-β-D-arabinofuranosylcytosine, reference compound] |
| – | 101.0 | 100.3 | 100.4 | – | 100 | – | – | CCCCCCCCCCCCCCCC(=O)Nc1ccn([C@@H]2O[C@H](CO)[C@@H](O)[C@@H]2C#N)c(=O)n1 [Crystal B, 2′-cyano-2′-deoxy-N^4-palmitoyl-1-β-D-arabinofuranosylcytosine] |
| – | 101.0 | 100.4 | 100.1 | – | – | 100 | – | CCCCCCCCCCCCCCCC(=O)Nc1ccn([C@@H]2O[C@H](CO)[C@@H](O)[C@@H]2C#N)c(=O)n1 [Crystal C, 2′-cyano-2′-deoxy-N^4-palmitoyl-1-β-D-arabinofuranosylcytosine] |
| – | 99.9 | 98.3 | 98.4 | – | – | – | 98.4 | CCCCCCCCCCCCCCCC(=O)Nc1ccn([C@@H]2O[C@H](CO)[C@@H](O)[C@@H]2C#N)c(=O)n1 [Crystal D, 2′-cyano-2′-deoxy-N^4-palmitoyl-1-β-D-arabinofuranosylcytosine] |

Source: patent US6908906B2, “Crystalline forms of pyrimidine nucleoside derivative” (Sankyo Company, Limited, priority 2001, dated 2005)
